Our source for the IC50 values is ChEMBL document CHEMBL1155187, “Amplification of the inhibitory activity of miglitol by monofluorination” (Bioorg Med Chem Lett, 2009).

One may read the IC50 as the concentration that gives 50% inhibition.

The target in the experiment is Oligo-1,6-glucosidase IMA1 (Saccharomyces cerevisiae S288c, UniProt P53051). In words: Inhibition of baker's yeast alpha-glucosidase by 4-nitrophenolate-based assay.
Sequence of Oligo-1,6-glucosidase IMA1 (P53051 whole entry): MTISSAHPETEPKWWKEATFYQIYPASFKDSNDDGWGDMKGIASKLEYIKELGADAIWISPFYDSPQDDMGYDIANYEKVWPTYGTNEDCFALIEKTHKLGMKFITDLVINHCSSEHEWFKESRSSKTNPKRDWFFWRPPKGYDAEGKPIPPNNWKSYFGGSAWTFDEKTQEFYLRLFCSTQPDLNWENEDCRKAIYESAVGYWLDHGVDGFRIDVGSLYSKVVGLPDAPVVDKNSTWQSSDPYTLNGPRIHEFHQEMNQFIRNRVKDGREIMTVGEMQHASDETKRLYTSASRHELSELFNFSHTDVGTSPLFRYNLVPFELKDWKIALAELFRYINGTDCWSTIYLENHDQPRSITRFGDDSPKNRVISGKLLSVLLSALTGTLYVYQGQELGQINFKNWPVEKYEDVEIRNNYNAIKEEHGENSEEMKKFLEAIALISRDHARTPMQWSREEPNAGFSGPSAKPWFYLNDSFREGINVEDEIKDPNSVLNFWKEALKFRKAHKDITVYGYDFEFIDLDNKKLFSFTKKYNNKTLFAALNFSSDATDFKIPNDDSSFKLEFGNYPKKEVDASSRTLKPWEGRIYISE

In turn, `OCCN1C[C@@H](F)[C@@H](O)[C@H](O)[C@H]1CO` returned a half-maximal inhibitory concentration (IC50) of 2.1 mM.

Regarding `OCCN1C[C@H](O)[C@@H](O)[C@H](O)[C@H]1CO` [MIGLITOL], the concentration for half-maximal inhibition (IC50) worked out at 9.9 mM. This IC50 lies about 4.7-fold higher than the previous one.
